Literature values, collected in patent US20190026423A1, “Cycle Closure Estimation of Relative Binding Affinities and Errors” (Schrödinger, LLC, priority 2013, published 2019).
Like-named read-outs stand apart in the source and are kept apart here.

Target: CDK2-cyclin A receptor (Homo sapiens, UniProt P24941)
Conditions: experimental binding free energy
[1] = 6 ligands with crystal structures
[2] = ligands without crystal structures

| Compound | ΔG(EXP) [1] | ΔG(EXP) [2] |
| --- | --- | --- |
| Cc1cccc(Nc2nc(OCC3CCCCC3)c3nc[nH]c3n2)c1 [Compound 1h1r] | -7.67 kcal/mol |  |
| CS(=O)(=O)c1cccc(Nc2nc(OCC3CCCCC3)c3nc[nH]c3n2)c1 [Compound 1oiu] | -9.08 kcal/mol |  |
| CC(=O)c1ccc(Nc2nc(OCC3CCCCC3)c3nc[nH]c3n2)cc1 [Compound 1oiy] | -9.79 kcal/mol |  |
| Cc1cccc(Nc2nc(OCC3CCCCC3)c3nc[nH]c3n2)c1 [Compound 17] |  | -7.04 kcal/mol |
| CCc1cccc(Nc2nc(OCC3CCCCC3)c3nc[nH]c3n2)c1 [Compound 20] |  | -8.72 kcal/mol |
